{
  "source": "patent US12077503B2",
  "about": "“Substituted cyclic amides and their use as herbicides” (FMC CORPORATION, priority 2015, dated 2024)",
  "type_in_all_cases": "in vivo",
  "key": {"[1]": {"system": "barnyardgrass (Echinochloa crus-galli)", "experiment": "Test B flooded paddy test", "conditions": "Echinochloa crus-galli, 250 g ai/ha, Flood; 0 to 100 scale where 0 is no effect and 100 is complete control; read-out: Barnyardgrass plant response rating", "summary_of_the_method": "(§1)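 Plants at 2-leaf stage flooded to 3 cm above soil, with compounds applied directly to paddy water and that depth maintained. Plants kept in greenhouse 13–15 d. Visual rating versus controls on a 0 (no effect) to 100 (complete control) scale.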"}, "[2]": {"system": "ducksalad (Heteranthera limosa)", "experiment": "Test B flooded paddy test", "conditions": "Heteranthera limosa, 250 g ai/ha, Flood; 0 to 100 scale where 0 is no effect and 100 is complete control; read-out: Ducksalad plant response rating", "summary_of_the_method": "as §1"}, "[3]": {"system": "sedge, umbrella (small-flower umbrella sedge, Cyperus difformis)", "experiment": "Test B flooded paddy test", "conditions": "Cyperus difformis, 250 g ai/ha, Flood; 0 to 100 scale where 0 is no effect and 100 is complete control; read-out: Sedge, Umbrella plant response rating", "summary_of_the_method": "as §1"}, "[4]": {"system": "rice (Oryra sativa)", "experiment": "Test B flooded paddy test", "conditions": "Oryza sativa, 250 g ai/ha, Flood; 0 to 100 scale where 0 is no effect and 100 is complete control; read-out: Rice plant response rating", "summary_of_the_method": "as §1"}, "[5]": {"system": "Kochia (Kochia scoparia)", "experiment": "Test A preemergence", "conditions": "Bassia scoparia, pre-emergence, 240 h, Preemergence", "summary_of_the_method": "(§2)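 Preemergence directed soil spray on seeded pots, or postemergence application to plants 2–10 cm, one- to two-leaf. Solvent mixture non-phytotoxic, with surfactant. Scored ~10 d later, visually, 0–100 vs untreated.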"}, "[6]": {"system": "ragweed (common ragweed, Ambrosia elatior)", "experiment": "Test A preemergence", "conditions": "Ambrosia artemisiifolia, pre-emergence, 240 h, Preemergence", "summary_of_the_method": "as §2"}, "[7]": {"system": "barnyardgrass (Echinochloa crus-galli)", "experiment": "Test A preemergence", "conditions": "Echinochloa crus-galli, pre-emergence, 240 h, Preemergence", "summary_of_the_method": "as §2"}, "[8]": {"system": "pigweed (Amaranthus retroflexus)", "experiment": "Test A preemergence", "conditions": "Amaranthus retroflexus, pre-emergence, 240 h, Preemergence"}, "[9]": {"system": "ryegrass, Italian (Italian ryegrass, Lolium multiflorum)", "experiment": "Test A preemergence", "conditions": "Lolium multiflorum, pre-emergence, 240 h, Preemergence", "summary_of_the_method": "as §2"}, "[10]": {"system": "giant foxtail (Setaria faberii)", "experiment": "Test A preemergence", "conditions": "Setaria faberi, pre-emergence, 240 h, Preemergence", "summary_of_the_method": "as §2"}, "[11]": {"system": "corn (Zea mays)", "experiment": "Test A postemergence", "conditions": "Zea mays, post-emergence, 240 h", "summary_of_the_method": "as §2"}, "[12]": {"system": "Kochia (Kochia scoparia)", "experiment": "Test A postemergence", "conditions": "Bassia scoparia, post-emergence, 240 h", "summary_of_the_method": "as §2"}, "[13]": {"system": "Galium (catchweed bedstraw, Galium aparine)", "experiment": "Test A postemergence", "conditions": "Galium, post-emergence, 240 h", "summary_of_the_method": "as §2"}, "[14]": {"system": "ragweed (common ragweed, Ambrosia elatior)", "experiment": "Test A postemergence", "conditions": "Ambrosia artemisiifolia, post-emergence, 240 h", "summary_of_the_method": "as §2"}, "[15]": {"system": "barnyardgrass (Echinochloa crus-galli)", "experiment": "Test A postemergence", "conditions": "Echinochloa crus-galli, post-emergence, 240 h", "summary_of_the_method": "as §2"}, "[16]": {"system": "blackgrass (Alopecurus myosuroides)", "experiment": "Test A postemergence", "conditions": "Alopecurus myosuroides, post-emergence, 240 h", "summary_of_the_method": "as §2"}, "[17]": {"system": "pigweed (Amaranthus retroflexus)", "experiment": "Test A postemergence", "conditions": "Amaranthus retroflexus, post-emergence, 240 h", "summary_of_the_method": "as §2"}, "[18]": {"system": "ryegrass, Italian (Italian ryegrass, Lolium multiflorum)", "experiment": "Test A postemergence", "conditions": "Lolium multiflorum, post-emergence, 240 h", "summary_of_the_method": "as §2"}, "[19]": {"system": "wheat (Triticum aestivum)", "experiment": "Test A postemergence", "conditions": "Triticum aestivum, post-emergence, 240 h", "summary_of_the_method": "as §2"}, "[20]": {"system": "giant foxtail (Setaria faberii)", "experiment": "Test A postemergence", "conditions": "Setaria faberi, post-emergence, 240 h", "summary_of_the_method": "as §2"}},
  "data": [
    {"smiles": "CSc1ccccc1NC(=O)[C@H]1C(=O)NC[C@@H]1c1ccc(C(F)(F)F)cn1", "note": "[Compound 1050]", "values": [
      {"measurement": "pest or weed control at 250 g/ha", "setting": "[1]", "result": 0, "unit": "%"},
      {"measurement": "pest or weed control at 250 g/ha", "setting": "[2]", "result": 85, "unit": "%"},
      {"measurement": "pest or weed control at 250 g/ha", "setting": "[3]", "result": 0, "unit": "%"},
      {"measurement": "pest or weed control at 250 g/ha", "setting": "[4]", "result": 0, "unit": "%"},
      {"measurement": "pest or weed control at 31 g/ha", "setting": "[5]; 31 g ai/ha, 0 to 100 scale where 0 is no effect and 100 is complete control, read-out: Kochia plant response rating", "result": 0, "unit": "%"},
      {"measurement": "pest or weed control at 125 g/ha", "setting": "[5]; 125 g ai/ha, visual injury rating after approximately 10 d, read-out: Kochia plant response rating (0 to 100 scale, 0 is no effect, 100 is complete control)", "result": 0, "unit": "%"},
      {"measurement": "pest or weed control at 31 g/ha", "setting": "[6]; 31 g ai/ha, 0 to 100 scale where 0 is no effect and 100 is complete control, read-out: Ragweed plant response rating", "result": 0, "unit": "%"},
      {"measurement": "pest or weed control at 125 g/ha", "setting": "[6]; 125 g ai/ha, visual injury rating after approximately 10 d, read-out: Ragweed plant response rating (0 to 100 scale, 0 is no effect, 100 is complete control)", "result": 0, "unit": "%"},
      {"measurement": "pest or weed control at 125 g/ha", "setting": "[7]; 125 g ai/ha, visual injury rating after approximately 10 d, read-out: Barnyardgrass plant response rating (0 to 100 scale, 0 is no effect, 100 is complete control)", "result": 0, "unit": "%"},
      {"measurement": "pest or weed control at 31 g/ha", "setting": "[7]; 31 g ai/ha, 0 to 100 scale (0 no effect, 100 complete control), read-out: Plant response rating, Barnyardgrass", "result": 0, "unit": "%"},
      {"measurement": "pest or weed control at 31 g/ha", "setting": "[8]; 31 g ai/ha, 0 to 100 scale where 0 is no effect and 100 is complete control, read-out: Pigweed plant response rating", "result": 0, "unit": "%"},
      {"measurement": "pest or weed control at 125 g/ha", "setting": "[8]; 125 g ai/ha, visual injury rating after approximately 10 d, read-out: Pigweed plant response rating (0 to 100 scale, 0 is no effect, 100 is complete control)", "result": 0, "unit": "%"},
      {"measurement": "pest or weed control at 31 g/ha", "setting": "[9]; 31 g ai/ha, 0 to 100 scale where 0 is no effect and 100 is complete control, read-out: Ryegrass, Italian plant response rating", "result": 0, "unit": "%"},
      {"measurement": "pest or weed control at 125 g/ha", "setting": "[9]; 125 g ai/ha, visual injury rating after approximately 10 d, read-out: Ryegrass, Italian plant response rating (0 to 100 scale, 0 is no effect, 100 is complete control)", "result": 0, "unit": "%"},
      {"measurement": "pest or weed control at 125 g/ha", "setting": "[10]; 125 g ai/ha, visual injury rating after approximately 10 d, read-out: Foxtail, Giant plant response rating (0 to 100 scale, 0 is no effect, 100 is complete control)", "result": 0, "unit": "%"},
      {"measurement": "pest or weed control at 31 g/ha", "setting": "[10]; 31 g ai/ha, 0 to 100 scale (0 no effect, 100 complete control), read-out: Plant response rating, Foxtail, Giant", "result": 0, "unit": "%"},
      {"measurement": "plant injury at 125 g/ha", "setting": "[11]; 125 g ai/ha, postemergence, visual injury on 0 to 100 scale (0 no effect, 100 complete control), approx. 10 d, read-out: Corn plant response rating", "result": 0, "unit": "%"},
      {"measurement": "Corn plant response rating (crop injury, 0 = no effect, 100 = complete kill) at 31 g/ha", "setting": "[11]; Postemergence, 31 g ai/ha, visual injury after approx. 10 d, 0 to 100 scale, 0 no effect, 100 complete control", "result": 0, "unit": "%"},
      {"measurement": "pest or weed control at 125 g/ha", "setting": "[12]; 125 g ai/ha, postemergence, visual injury on 0 to 100 scale (0 no effect, 100 complete control), approx. 10 d, read-out: Kochia plant response rating", "result": 0, "unit": "%"},
      {"measurement": "pest or weed control at 31 g/ha", "setting": "[12]; Postemergence, 31 g ai/ha, visual injury after approx. 10 d, 0 to 100 scale, 0 no effect, 100 complete control, read-out: Plant response rating, Kochia", "result": 0, "unit": "%"},
      {"measurement": "pest or weed control at 125 g/ha", "setting": "[13]; 125 g ai/ha, postemergence, visual injury on 0 to 100 scale (0 no effect, 100 complete control), approx. 10 d, read-out: Galium plant response rating", "result": 0, "unit": "%"},
      {"measurement": "pest or weed control at 31 g/ha", "setting": "[13]; Postemergence, 31 g ai/ha, visual injury after approx. 10 d, 0 to 100 scale, 0 no effect, 100 complete control, read-out: Plant response rating, Galium", "result": 0, "unit": "%"},
      {"measurement": "pest or weed control at 125 g/ha", "setting": "[14]; 125 g ai/ha, postemergence, visual injury on 0 to 100 scale (0 no effect, 100 complete control), approx. 10 d, read-out: Ragweed plant response rating", "result": 0, "unit": "%"},
      {"measurement": "pest or weed control at 31 g/ha", "setting": "[14]; Postemergence, 31 g ai/ha, visual injury after approx. 10 d, 0 to 100 scale, 0 no effect, 100 complete control, read-out: Plant response rating, Ragweed", "result": 0, "unit": "%"},
      {"measurement": "pest or weed control at 125 g/ha", "setting": "[15]; 125 g ai/ha, postemergence, visual injury on 0 to 100 scale (0 no effect, 100 complete control), approx. 10 d, read-out: Barnyardgrass plant response rating", "result": 0, "unit": "%"},
      {"measurement": "pest or weed control at 31 g/ha", "setting": "[15]; Postemergence, 31 g ai/ha, visual injury after approx. 10 d, 0 to 100 scale, 0 no effect, 100 complete control, read-out: Plant response rating, Barnyardgrass", "result": 0, "unit": "%"},
      {"measurement": "pest or weed control at 125 g/ha", "setting": "[16]; 125 g ai/ha, postemergence, visual injury on 0 to 100 scale (0 no effect, 100 complete control), approx. 10 d, read-out: Blackgrass plant response rating", "result": 0, "unit": "%"},
      {"measurement": "pest or weed control at 31 g/ha", "setting": "[16]; Postemergence, 31 g ai/ha, visual injury after approx. 10 d, 0 to 100 scale, 0 no effect, 100 complete control, read-out: Plant response rating, Blackgrass", "result": 0, "unit": "%"},
      {"measurement": "pest or weed control at 125 g/ha", "setting": "[17]; 125 g ai/ha, postemergence, visual injury on 0 to 100 scale (0 no effect, 100 complete control), approx. 10 d, read-out: Pigweed plant response rating", "result": 0, "unit": "%"},
      {"measurement": "pest or weed control at 31 g/ha", "setting": "[17]; Postemergence, 31 g ai/ha, visual injury after approx. 10 d, 0 to 100 scale, 0 no effect, 100 complete control, read-out: Plant response rating, Pigweed", "result": 0, "unit": "%"},
      {"measurement": "pest or weed control at 125 g/ha", "setting": "[18]; 125 g ai/ha, postemergence, visual injury on 0 to 100 scale (0 no effect, 100 complete control), approx. 10 d, read-out: Ryegrass, Italian plant response rating", "result": 0, "unit": "%"},
      {"measurement": "pest or weed control at 31 g/ha", "setting": "[18]; Postemergence, 31 g ai/ha, visual injury after approx. 10 d, 0 to 100 scale, 0 no effect, 100 complete control, read-out: Plant response rating, Ryegrass, Italian", "result": 0, "unit": "%"},
      {"measurement": "plant injury at 125 g/ha", "setting": "[19]; 125 g ai/ha, postemergence, visual injury on 0 to 100 scale (0 no effect, 100 complete control), approx. 10 d, read-out: Wheat plant response rating", "result": 0, "unit": "%"},
      {"measurement": "plant injury at 31 g/ha", "setting": "[19]; Postemergence, 31 g ai/ha, visual injury after approx. 10 d, 0 to 100 scale, 0 no effect, 100 complete control, read-out: Plant response rating, Wheat", "result": 0, "unit": "%"},
      {"measurement": "pest or weed control at 125 g/ha", "setting": "[20]; 125 g ai/ha, postemergence, visual injury on 0 to 100 scale (0 no effect, 100 complete control), approx. 10 d, read-out: Foxtail, Giant plant response rating", "result": 0, "unit": "%"},
      {"measurement": "pest or weed control at 31 g/ha", "setting": "[20]; Postemergence, 31 g ai/ha, visual injury after approx. 10 d, 0 to 100 scale, 0 no effect, 100 complete control, read-out: Plant response rating, Foxtail, Giant", "result": 0, "unit": "%"}
    ]}
  ]
}
